Melting point and IC50 data for eleven compounds are collected here from US6727266B2, “Substituted tryptophan derivatives” (Shionogi & Co., Ltd., priority 2000, dated 2004).

The target of one series is T1, MMP-2 (Homo sapiens, UniProt P08253).
T1 construct: purchased Calbiochem-Novabiochem International, Inc
T1 sequence (P08253 110-660): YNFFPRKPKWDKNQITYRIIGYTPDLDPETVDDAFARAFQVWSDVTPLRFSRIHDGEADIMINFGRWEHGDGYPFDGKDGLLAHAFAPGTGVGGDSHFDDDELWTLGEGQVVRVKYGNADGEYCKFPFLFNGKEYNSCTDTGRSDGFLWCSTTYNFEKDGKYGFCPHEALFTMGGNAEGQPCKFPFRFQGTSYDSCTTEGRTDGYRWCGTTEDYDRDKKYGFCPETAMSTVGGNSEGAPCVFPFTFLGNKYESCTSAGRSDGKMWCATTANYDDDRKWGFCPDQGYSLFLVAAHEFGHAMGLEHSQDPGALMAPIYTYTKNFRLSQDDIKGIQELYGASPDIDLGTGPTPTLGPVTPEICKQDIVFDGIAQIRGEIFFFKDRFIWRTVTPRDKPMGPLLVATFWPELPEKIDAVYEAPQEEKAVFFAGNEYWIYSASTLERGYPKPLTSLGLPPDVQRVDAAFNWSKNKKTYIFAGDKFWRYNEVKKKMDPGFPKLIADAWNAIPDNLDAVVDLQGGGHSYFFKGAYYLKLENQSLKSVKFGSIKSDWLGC
Briefly: Assay for inhibitory activities on MMP-2 (fluorogenic MOCAc peptide substrate). It is filed as biochemical. The note with it: MMP-2 purchased from Calbiochem-Novabiochem. The procedure: MMP-2 was purchased from Calbiochem-Novabiochem International, Inc.
(§1) The enzymatic activity on each MMP was analyzed by the method described in “C Graham Knight, Frances Willenbrock and Gillian Murphy: A novel coumarin-labelled peptide for sensitive continuous assays of the matrix metalloproteinases: FEBS LETT., 296, (1992), 263-266”. The substrate: MOCAc-Pro-Leu-Gly-Leu-A2Pr(DNP)-Ala-Arg-NH2 was purchased from Peptide Institute, Inc., Osaka, Japan.
(§2) The measurement of the inhibitory activities of a compound (inhibitor) was carried out by the following four methods;
(§3) A) Reaction with substrate, enzyme (MMPs) and inhibitor
(§4) B) Reaction with substrate and inhibitor, without enzyme
(§5) C) Reaction with substrate and enzyme (MMPs), without inhibitor
(§6) D) Reaction with substrate only
(§7) Each fluorescence values of above four methods was measured and % inhibition was calculated by using the following formula.
(§8) % inhibition={1−(A−B)/(C−D)}×100
(§9) IC50 means the concentration required to inhibit 50% of the enzyme activity.

The target in another series is T2, MMP-9 (Homo sapiens, UniProt P14780).
T2 construct: made in house; host or cells: Endogenous secretion by human fibrosarcoma HT1080 cells (ATCC) treated with TPA; purified from the culture medium
T2 sequence (P14780 107-707 limits assumed): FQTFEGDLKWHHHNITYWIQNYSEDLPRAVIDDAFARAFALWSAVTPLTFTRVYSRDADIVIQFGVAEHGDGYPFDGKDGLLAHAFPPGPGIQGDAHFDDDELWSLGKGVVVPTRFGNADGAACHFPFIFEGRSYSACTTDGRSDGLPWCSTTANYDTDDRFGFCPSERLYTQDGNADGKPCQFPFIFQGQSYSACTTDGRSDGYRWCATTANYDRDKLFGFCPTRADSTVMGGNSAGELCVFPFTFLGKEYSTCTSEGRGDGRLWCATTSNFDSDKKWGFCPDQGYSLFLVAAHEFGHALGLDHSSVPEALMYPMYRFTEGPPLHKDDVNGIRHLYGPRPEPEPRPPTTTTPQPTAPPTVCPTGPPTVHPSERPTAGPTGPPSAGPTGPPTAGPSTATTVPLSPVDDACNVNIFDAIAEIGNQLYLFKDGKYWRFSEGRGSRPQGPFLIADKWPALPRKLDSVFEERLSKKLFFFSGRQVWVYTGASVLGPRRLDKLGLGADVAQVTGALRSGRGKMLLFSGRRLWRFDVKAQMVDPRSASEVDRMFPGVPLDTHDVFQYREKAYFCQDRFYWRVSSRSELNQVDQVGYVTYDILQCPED
The series can be described thus: Assay for inhibitory activities on MMP-9 (fluorogenic MOCAc peptide substrate). It is filed as biochemical. The note with it: MMP-9 purified from human fibrosarcoma HT1080 cells, activated by TPCK-Trypsin.
From the text: MMP-9 was purified by using a combination of procedures described in the method descrived in Y. Okada et al. (Yasunori Okada, Yukio Gonoji, Katsumi Naka, Katsuro Tomita, Isao Nakanishi, Kazushi Iwata and Taro Hayakawa: Matrix metalloproteinase 9 (92-kDa gelatinase/type IV collagenase) from HT1080 human fibrosarcoma cells. Purification and activation of the precursor and enzymic properties. J. Biol. Chem., 267 (1992) 21712-21719 and the other method (1) Yasunori Okada, Tatsuhisa Morodomi, Jan J, Enghild, Ko Suzuki, Atsushi Yasui, Isao Nakanishi, Guy Salvesen and Hideaki Nagase: Matrix metalloproteinase 2 from human rheumatoid synovial fibroblasts. Purification and activation of the precursor and enzymic properties. Eur. J. Biochem. 194 (1990) 721-730 or (2) Robin V Ward, Rosalind M Hembry, John J Reynolds and Gillian Murphy: The purification of tissue inhibitor of metalloproteinase-2 from its 72 kDa progelatinase complex. Biochem. J. 278 (1991) 179-187. Briefly, human fibrosarcoma ATCC HT1080 cell line was cultured to confluent in Dulbecco's Modified Medium (DMEM) containing 10% fetal-calf serum (FCS) at 37° C. for 48 hours (5%). Further, Confluent Cell was cultured in DMEM removed FCS (2nd). To obtain MMP-9, Phorbol-12-myristate-13-acetate (TPA) was added to this DMEM medium at a concentration of 50 ng/ml. The TPA treated medium was centrifuged at 3000 rpm for 15 min and the supernatant was concentrated to 450 ml by a Toyo-Roshi UP-20 apparatus with an ultrafiltration membrane. Then, this concentrated solution was purified by Gelatin-Sepharose and Concanavalin A-Sepharose. The pool containing MMP-9 was dialyzed, concentrated (Toyo-Roshi UP-20) and applied to columns of Sephacryl S-200 and Green A matrix for the separation from TIMP. The obtained Procollagenase was activated by TPCK-Trypsin (final conc. 3 μg/μl reaction mix.) for the assay.
as §1, §2, §3, §4, §5, §6, §7, §8, §9

The term melting point denotes the temperature, or range, at which the solid turns liquid. In general, IC50 refers to the concentration that gives 50% inhibition. `Cc1ccc(C#Cc2ccc(S(=O)(=O)N[C@H](Cc3c[nH]c4ccc(O)cc34)C(=O)O)s2)cc1` [Compound A-1]: the melting point was 200 to 202 °C (dec.). For the same compound, the concentration for half-maximal inhibition (IC50) at MMP-2 stood at 0.223 nM. Besides, on MMP-9, the IC50 turned out to be 2.44 nM.
In the case of `COc1ccc2[nH]cc(C[C@@H](NS(=O)(=O)c3ccc(C#Cc4ccc(C)cc4)s3)C(=O)O)c2c1` [Compound A-2], the figures for the IC50 on MMP-2 and on MMP-9 were 10.6 nM and 15.6 nM, respectively.
Consider `COc1cccc2[nH]cc(C[C@@H](NS(=O)(=O)c3ccc(C#Cc4ccc(C)cc4)s3)C(=O)O)c12` [Compound A-3], for which the IC50 on MMP-2 was 22.8 nM; on MMP-9 it was 174 nM.
As to `Cc1ccc(C#Cc2ccc(S(=O)(=O)N[C@H](Cc3c[nH]c4cccc(O)c34)C(=O)O)s2)cc1` [Compound A-4], the values for the 50% inhibitory concentration (IC50) on MMP-2 and on MMP-9 were 0.768 nM and 24.3 nM, respectively.
In the same order, the values of `Cc1ccc(C#Cc2ccc(S(=O)(=O)N[C@H](Cc3c[nH]c4c(O)cccc34)C(=O)O)s2)cc1` [Compound A-5] are 1.21 nM and 6.49 nM.
Regarding `Cc1ccc(C#Cc2ccc(S(=O)(=O)N[C@@H](Cc3c[nH]c4ccc(F)cc34)C(=O)O)s2)cc1` [Compound A-6], the IC50 amounted to 90.8 nM on MMP-2 and 848 nM at MMP-9.
On the same counts, the results for `COc1ccc2[nH]cc(C[C@@H](NS(=O)(=O)c3ccc(-c4ccc(N(C)C)cc4)s3)C(=O)O)c2c1` [Compound A-8] are 0.617 nM and 6.66 nM.
For the compound `O=C(O)[C@@H](Cc1c[nH]c2ccc(F)cc12)NS(=O)(=O)c1ccc(-c2ccc(N3CCCC3)cc2)s1` [Compound A-9], the figures for the IC50 against MMP-2 and at MMP-9 were 0.137 nM and 0.534 nM, respectively.
In the same order, the values of `O=C(O)[C@H](Cc1c[nH]c2ccc(F)cc12)NS(=O)(=O)c1ccc(-c2ccc(N3CCCC3)cc2)s1` [Compound A-10] are 4.04 nM and 12 nM.
On to `COc1ccc(-n2nnc(-c3ccc(S(=O)(=O)N[C@H](Cc4c[nH]c5ccc(OC)cc45)C(=O)O)cc3)n2)cc1` [Compound A-11], for which the results for the IC50 against MMP-2 and on MMP-9 were 5.77 nM and 16 nM, respectively.
In the same order, the values of `O=C(O)[C@H](Cc1c[nH]c2ccc(F)cc12)NS(=O)(=O)c1ccc(-c2nnn(-c3ccccc3)n2)cc1` [Compound A-12] are 85.8 nM and 1420 nM.
